Measurements published in ChEMBL document CHEMBL1122657, “Dopaminergic agonists: comparative actions of amine and sulfonium analogues of dopamine” (J Med Chem, 1984).

What was measured:
Assay type in all cases: functional
[1] = Effect (0.0 uM) on K+-evoked release of [3H]acetylcholine from striatal slices of reserpine-alpha MPT treated mice evoked by two successive exposures (S1and S2) at 55 and 90 min after the start of perfusion.
[2] = Effect (1.0 uM) on K+-evoked release of [3H]acetylcholine from striatal slices of reserpine-alpha MPT treated mice evoked by two successive exposures (S1and S2) at 55 and 90 min after the start of perfusion.
[3] = Effect (0.3 uM) on K+-evoked release of [3H]acetylcholine from striatal slices of reserpine-alpha MPT treated mice evoked by two successive exposures (S1and S2) at 55 and 90 min after the start of perfusion.
[4] = Effect (3.0 uM) on K+-evoked release of [3H]acetylcholine from striatal slices of reserpine-alpha MPT treated mice evoked by two successive exposures (S1and S2) at 55 and 90 min after the start of perfusion.
[5] = species: Mus musculus; experiment: Compound concentration that causes inhibition of [3H]-acetyl choline release by 50% was determined using reserpine-alpha MPT treated mice striatal slices

Structure (SMILES) | IC50 [5] [µM] | also measured
C[S+](C)c1ccc2cc(O)c(O)cc2c1.[Br-] |  | Ratio [1]: 0.98; Ratio [2]: 0.81; Ratio [3]: 0.85; Ratio [4]: 0.86
NC1CCc2cc(O)c(O)cc2C1 (stereo not drawn) | 0.01 | 
CC(N)Cc1ccc(O)c(O)c1 (stereo not drawn) | 10 | 
CN(C)CCc1ccc(O)c(O)c1 | 10 | 
NCCc1ccc(O)c(O)c1 [DOPAMINE] | 10 | 
